Assay results reported in publication PMC12586182 (Frontiers in Oncology, 2025).
“And” between values parts separate entries of the source, which are not always exact repeats. Equal entries are not always repeated. Where two headings read alike, the source gives them in different places.

Tests used:
[1] = biological target: MLK1 (Homo sapiens, UniProt P80192); experiment: Radiometric kinase assay with 32P-labeled ATP (Eurofins)
Method: Inhibition of MLK1 and B-RAF at K M,ATP was determined in a radiometric assay using ^32P-labeled ATP at Eurofins Cerep SA (Celle-Lévescault, France). Interaction with SIK3 was assessed in a competition binding assay at Eurofins DiscoverX LLC (San Diego, CA, USA).

[2] = biological target: activated B-RAF (Homo sapiens, UniProt P15056); experiment: biochemical
[3] = biological target: T1, MEK1 (Homo sapiens, UniProt Q02750); experiment: Kinase enzyme activity assay (ELISA, in-house); type: biochemical
T1 construct: purchased Carna Biosciences, Inc. 07–41

[4] = biological target: T2, MEK2 (Homo sapiens, UniProt P36507); experiment: Kinase enzyme activity assay (ELISA, in-house); type: biochemical
T2 construct: purchased Carna Biosciences, Inc. 07-42
T2 sequence (P36507 whole entry): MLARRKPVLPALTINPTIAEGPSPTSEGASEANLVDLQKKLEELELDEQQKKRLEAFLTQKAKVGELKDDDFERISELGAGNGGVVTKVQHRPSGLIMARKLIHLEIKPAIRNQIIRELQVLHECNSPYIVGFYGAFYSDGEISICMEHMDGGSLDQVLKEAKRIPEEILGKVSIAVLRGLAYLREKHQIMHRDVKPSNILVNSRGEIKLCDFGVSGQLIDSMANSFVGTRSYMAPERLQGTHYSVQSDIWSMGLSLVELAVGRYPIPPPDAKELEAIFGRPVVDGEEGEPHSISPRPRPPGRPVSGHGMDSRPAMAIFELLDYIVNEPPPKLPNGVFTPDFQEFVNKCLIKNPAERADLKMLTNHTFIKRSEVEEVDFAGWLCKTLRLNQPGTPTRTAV

T1 sequence (Q02750 whole entry): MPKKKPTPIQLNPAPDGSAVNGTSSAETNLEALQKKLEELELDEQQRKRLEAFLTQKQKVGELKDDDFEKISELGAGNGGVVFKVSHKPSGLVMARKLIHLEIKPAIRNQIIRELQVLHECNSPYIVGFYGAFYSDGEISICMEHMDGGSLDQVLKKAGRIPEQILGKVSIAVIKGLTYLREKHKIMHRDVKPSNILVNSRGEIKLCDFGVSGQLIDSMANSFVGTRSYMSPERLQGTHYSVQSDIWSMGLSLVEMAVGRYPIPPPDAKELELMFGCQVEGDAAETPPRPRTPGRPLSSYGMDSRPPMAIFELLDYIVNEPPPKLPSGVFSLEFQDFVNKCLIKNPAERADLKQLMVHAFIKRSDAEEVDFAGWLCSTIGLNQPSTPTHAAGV
Sequence of MLK1 (P80192 whole entry): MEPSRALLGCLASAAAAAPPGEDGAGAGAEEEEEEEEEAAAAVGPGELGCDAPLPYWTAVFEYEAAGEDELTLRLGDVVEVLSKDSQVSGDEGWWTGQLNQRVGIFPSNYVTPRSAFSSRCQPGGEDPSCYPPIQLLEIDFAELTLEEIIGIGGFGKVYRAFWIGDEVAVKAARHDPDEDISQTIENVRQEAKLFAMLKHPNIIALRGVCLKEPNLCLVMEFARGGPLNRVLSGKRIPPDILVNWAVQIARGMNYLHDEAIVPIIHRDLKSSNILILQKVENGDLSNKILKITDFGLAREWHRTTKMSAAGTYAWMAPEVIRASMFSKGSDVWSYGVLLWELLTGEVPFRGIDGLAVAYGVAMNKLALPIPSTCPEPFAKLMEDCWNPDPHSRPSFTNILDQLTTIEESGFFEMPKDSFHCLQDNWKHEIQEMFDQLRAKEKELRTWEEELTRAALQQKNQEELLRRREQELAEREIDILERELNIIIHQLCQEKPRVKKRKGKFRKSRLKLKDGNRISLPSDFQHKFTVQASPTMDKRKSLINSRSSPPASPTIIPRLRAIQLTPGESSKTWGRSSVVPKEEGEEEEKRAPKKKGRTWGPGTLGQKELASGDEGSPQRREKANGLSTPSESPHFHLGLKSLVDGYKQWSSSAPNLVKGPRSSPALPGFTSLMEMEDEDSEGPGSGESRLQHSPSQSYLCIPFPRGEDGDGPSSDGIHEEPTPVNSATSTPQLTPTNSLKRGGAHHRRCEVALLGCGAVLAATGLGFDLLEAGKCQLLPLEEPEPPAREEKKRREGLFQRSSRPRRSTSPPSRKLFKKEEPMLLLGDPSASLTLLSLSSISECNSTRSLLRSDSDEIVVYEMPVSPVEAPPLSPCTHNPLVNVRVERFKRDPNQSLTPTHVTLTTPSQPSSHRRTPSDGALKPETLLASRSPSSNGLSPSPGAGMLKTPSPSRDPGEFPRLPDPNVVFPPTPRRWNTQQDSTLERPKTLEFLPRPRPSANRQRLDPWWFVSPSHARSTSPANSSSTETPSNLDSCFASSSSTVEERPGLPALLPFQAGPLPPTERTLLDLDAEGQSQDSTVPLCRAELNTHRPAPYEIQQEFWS
Sequence of activated B-RAF (P15056 whole entry): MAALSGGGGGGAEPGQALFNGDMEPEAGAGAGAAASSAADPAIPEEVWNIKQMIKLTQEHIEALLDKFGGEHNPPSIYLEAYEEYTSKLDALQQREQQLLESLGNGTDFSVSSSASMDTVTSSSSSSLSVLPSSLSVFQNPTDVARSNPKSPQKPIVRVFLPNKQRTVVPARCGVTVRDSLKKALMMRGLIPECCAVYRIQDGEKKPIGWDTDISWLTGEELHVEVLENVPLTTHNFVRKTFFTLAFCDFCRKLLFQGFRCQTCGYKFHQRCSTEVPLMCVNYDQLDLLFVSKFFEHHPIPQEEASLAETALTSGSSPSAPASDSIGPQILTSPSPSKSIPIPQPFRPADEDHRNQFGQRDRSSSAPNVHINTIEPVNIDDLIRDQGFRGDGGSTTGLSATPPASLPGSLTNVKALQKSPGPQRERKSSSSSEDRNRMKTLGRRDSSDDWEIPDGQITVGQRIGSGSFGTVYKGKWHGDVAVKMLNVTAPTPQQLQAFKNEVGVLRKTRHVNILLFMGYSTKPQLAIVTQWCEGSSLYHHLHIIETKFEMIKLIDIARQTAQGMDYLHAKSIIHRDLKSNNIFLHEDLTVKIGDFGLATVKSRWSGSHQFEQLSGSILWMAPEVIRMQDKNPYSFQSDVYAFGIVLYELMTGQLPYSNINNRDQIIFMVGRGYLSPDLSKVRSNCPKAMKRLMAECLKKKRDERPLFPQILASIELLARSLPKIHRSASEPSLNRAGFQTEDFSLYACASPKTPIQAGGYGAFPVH

For `O=C(c1ccc(Oc2ccccc2)cc1Cl)c1c[nH]c2ncnc(N[C@@H]3CC[C@@H](CO)OC3)c12` [nemtabrutinib], the IC50 [1] was 4.87 µM, the “Inhibition of MLK1” value [1] was “did not inhibit” and the Kd [2] was 1.2 µM. For the same compound, the IC50 ([3]; 1 mmol/L ATP, read-out: IC50, MEK1) was 0.456 µM, the IC50 ([3]; IC50, MEK1) was about 0.009 µM and the IC50 ([3]; K M,bin ATP (10 µmol/L ATP), read-out: IC50, MEK1) was 0.0085 µM and 0.00846 µM. For the same compound, the IC50 ([4]; 1 mmol/L ATP, read-out: IC50, MEK2) was 0.494 µM and the IC50 ([4]; IC50, MEK2) was 0.0095 µM.
